From patent publication US20250000088A1, “ANT CONTROL AGENT AND ANT CONTROL METHOD” (Shin-Etsu Chemical Co., Ltd., priority 2021, published 2025)

Tested on: worker ants of Myrmica ruginodis
Test: Bioassay for selection of odor source (two arms of a four-arm olfactometer)
Type: in vivo
Settings: 10 ants per group, 3 repetitions, max 5 min
Experimental: Bioassays were performed using the worker ants of Myrmica ruginodis which had been collected in Niigata Prefecture in Japan. The bioassays were performed using only two arms of a four-arm olfactometer (classic 4-Choice Arena Orfactometer, Sigma Scientific LLC) as shown in FIG. 5. Pure air filled in a 47 L gas cylinder was used as an air source, and the air flow rate was adjusted by a regulator. […] The ants were used as each group consisting of 10 ants, the test was started at the time of entering the ants from the inlet 1, and the selection for the odor source was made for a maximum of 5 minutes per repetition. The choice of odor source was determined by counting the number of ants in the insect separation chamber 2 at the end of the test. Five minutes after the start of the experiment, and when all 10 ants selected any one of odor sources, the results were recorded, and the tested ants were removed. Then three repetitions (using a total of 30 ants) of experiments were performed. Each cotton swab serving as an odor source was installed in each odor source installation adapter 3, and was replaced with a new one at every repetition. The glassware was washed after each repetition, and the odor source installation adapter for installing an odor source in the olfactometer was selected randomly. […]

For `CCCCCC(=O)CC` [3-octanone], the “number of ants gathering at the odor source (choice of odor source)” value (cotton swab containing 1.1 mg of mixture (3-octanone diluted with distilled water with Triton X-100) vs distilled water control, FIG. 2) was “gathered in the alarm pheromone compound treatment section” and the “number of ants gathering at the odor source (choice of odor source)” value (cotton swab containing 7.6 mg of mixture (3-octanone diluted in distilled water with Triton X-100) vs distilled water control, FIG. 1) was “gathered in the control section, while avoiding the alarm pheromone compound treatment section”.
